Several values for one entry are separate records, joined by “and”; a condition that tells them apart may be missing. Identical values can stand only once.
Experiments:
SCD1 [1] = target: SCD1 (Rattus norvegicus (Rat), UniProt P07308); assay: SCD1 enzymatic assay in rat liver microsomes (RLM); assay type: biochemical; details: rat liver microsomes; for inhibition at 1 µM: read-out: % Inh.@ 1 μM
Procedure: Step 1: Preparation of Rat Liver Microsome (RLM):
Sprague Dawley rats from Charles River (200-225 g) underwent 2-cycle of fast-re-feeding (24-hour fast followed by 24-hour feeding with fat-free high carbohydrate diet, Reseach Diet, D00042802). The livers were removed and homogenized 1:4 (w/v) with pre-chilled, homogenizing buffer (10 mM Tris-HCl, 0.25 M sucrose, 1 mM EDTA, pH 7.4, supplemented with protease inhibitor cocktail). The homogenate was spun at 12,000×g for 15 min at 4° C. The supernatant was then re-centrifuged at 100,000×g for 60 min at 4° C. The pellet was re-suspended in 2 ml pre-chilled […] potassium phosphate buffer, pH 7.2, 10 mM EDTA at a concentration of 20 mg/ml. The resulting rat liver microsome (RLM) preparation was stored at −80° C.
Step 2: SCD1 Enzymatic Assay in RLM:
The SCD1 enzymatic assay was done in a volume of 50 μL using 10 μg of RLM (prepared as described above) in a 96-well polypropylene plate (enzyme reaction buffer contains 0.1 M K-Phosphate Buffer, 10 mM ATP, 6 mM MgCl2. 1 mM CoA, 1 mM β-NADH, 1.6 mM L-glutathione, 20 μM Stearoyl-CoA). Stearoyl-[9,10-^3H]-CoA (ARC-0390, 1 mCi/mL, 60 Ci/mmol,) was added at a final concentration of 2 μCi/mL. Test compound was then added to the reaction mixture at the selected concentration. After incubation at room temperature for 2 hours, 5 μL 1 N HCl was added to stop the reaction, followed by addition of 25 μL of 10% charcoal. The reaction mixture was then transferred to 96-well Multiscreen plate (Millipore, Cat#MSFCN6B50). […] The measured cpm values were fitted with Sigmoidal dose-response curve fit with Graphpad Prism.

SCD1 [2] = target: SCD1 (Homo sapiens (Human), UniProt O00767); assay: SCD1 13C-palmitic acid assay in A431 cells; assay type: cell-based; details: read-out: A431 cells 13C-PA IC50
Procedure: Human epithelial carcinoma A431 cells were seeded at 100,000 cells/well in complete growth medium (DMEM, Cellgro#10-013-CM, 4.5 g/L glucose, 10% FBS) in the presence of 0.05 mg/mL human insulin (Hannas Pharmaceutical Supply Co Inc, Humanlin 100 U/ml, 4 mg/ml) in 96-well tissue culture plate. 24 hr later, the cells were washed extensively with Assay Buffer (DMEM, Cellgro#10-013-CM, 4.5 g/L glucose, supplemented with 0.05 mg/mL Human Insulin and 0.1% Fatty Acid Free BSA). […] The cells were then returned to the tissue culture incubator (37° C. and 5% CO2) for 4 hrs. At the end of incubation, the cells were washed three times with 200 μL/well Hanks buffer (HBSS) and then stored at −20° C. until extraction.
For fatty acid extraction, after thawing out the plates, 40 μL of 1N KOH (containing 5 μM of internal standard 7,7,8,8-D4 palmitate) was added to each well and cell plates were incubated at 37° C. for 30 minutes. […] Acetonitrile (100 μL) was then added to extract fatty acids, followed by centrifugation at 3000 rpm for 10 minutes. 75 μL of extract was then transferred to a new glass vial in a 96-well cluster plate. 5 μL was injected for LC/MS analysis for detection of ^13C-palmitic acid and ^13C-palmitoleic acid. Formation of product ^13C-palmitoleic acid was determined as an index of SCD1 activity.
LC/MS analysis was performed as following. An Agilent 1100 Liquid Chromatographic System (Palo Alto, Calif.) consisting of a binary pump, a degasser and an autosampler was used. Separation of free fatty acids was performed on a Zorbax SB-C8 column (2.1×50 mm, particle size=3.5 μm). An isocratic elution was carried out with 10 mM triethylamine acetate in water: acetonitrile (3:7) at a flow rate of 0.3 mL/min. The column temperature was set at 30° C. and the sample injection volume was 5 μL. The LC run cycle was 4 min. A Micromass triple-quadrupole Quattro Micro mass […] (Waters, Beverly, Mass.) was interfaced with the LC system through a Z-spray electrospray ion source and was operated in the negative ion mode. Nitrogen was used as nebulizing gas, desolvation gas and cone curtain gas and argon was chosen as collision gas. The triple quadrupole MS source parameters were set as follows: capillary voltage, 3200V; cone voltage, 25V; exctractor 2V; source temperature, 120° C.; desolvation temperature, 300° C.; cone gas flow, 50 L/h; and desolvation gas flow, 700 L/h. […] MassLynx software version 4.0 was used for system control and data processing. The signal of U-^13C-palmitoleic acid was normalized to an internal standard.

Sequence of SCD1 (Homo sapiens (Human), UniProt O00767) (O00767 whole entry): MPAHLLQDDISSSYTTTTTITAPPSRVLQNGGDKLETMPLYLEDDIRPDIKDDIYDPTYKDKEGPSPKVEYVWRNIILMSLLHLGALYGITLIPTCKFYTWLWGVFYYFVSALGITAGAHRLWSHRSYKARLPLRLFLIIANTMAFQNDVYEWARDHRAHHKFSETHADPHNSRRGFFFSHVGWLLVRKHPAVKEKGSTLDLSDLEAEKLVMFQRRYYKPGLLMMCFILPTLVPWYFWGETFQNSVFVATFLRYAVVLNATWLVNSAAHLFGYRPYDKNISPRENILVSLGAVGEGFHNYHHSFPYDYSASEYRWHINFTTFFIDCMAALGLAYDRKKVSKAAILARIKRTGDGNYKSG
Sequence of SCD1 (Rattus norvegicus (Rat), UniProt P07308) (P07308 whole entry): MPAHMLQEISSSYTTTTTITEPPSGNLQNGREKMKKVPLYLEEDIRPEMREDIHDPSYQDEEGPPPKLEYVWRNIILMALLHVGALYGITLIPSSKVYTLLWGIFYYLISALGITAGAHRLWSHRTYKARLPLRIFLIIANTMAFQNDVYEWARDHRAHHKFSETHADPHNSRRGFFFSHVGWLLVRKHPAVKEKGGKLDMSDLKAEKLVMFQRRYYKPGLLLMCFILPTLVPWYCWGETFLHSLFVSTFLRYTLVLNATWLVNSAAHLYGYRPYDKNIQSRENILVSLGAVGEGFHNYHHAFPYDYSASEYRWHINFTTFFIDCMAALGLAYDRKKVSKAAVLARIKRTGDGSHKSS

Structure (SMILES)	inhibition at 1 µM (SCD1 [1]; 1 μM test compound) [%]	IC50 (SCD1 [1])	IC50 (SCD1 [2])	% Inh.@ 1 μM (SCD1 [1]; 1 μM test compound) [%]
Fc1ccc2c(c1)N(C1CCN(c3ccc(-c4ccc(C(F)(F)F)cc4)nn3)CC1)CC2 [Compound #54, 6-fluoro-1-(1-(6-(4-(trifluoromethyl)phenyl)pyridazin-3-yl)piperidin-4-yl)indoline]	85	90 nM	54 nM	
O=C(O)c1ccc(-c2ccc(N3CCC(N4CCc5ccc(F)cc54)CC3)nn2)cc1 [Compound #58, 4-(6-(4-(6-fluoroindolin-1-yl)piperidin-1-yl)pyridazin-3-yl)benzoic acid]	78	349 nM	390 nM	
CCOC(=O)Cn1cc(-c2ccc(N3CCC(N4CCc5ccc(F)cc54)CC3)nn2)cn1 [compound 50, ethyl 2-(4-(6-(4-(6-fluoroindolin-1-yl)piperidin-1-yl)pyridazin-3-yl)-1H-pyrazol-1-yl)acetate]	93	31 nM	44 nM	
Cc1csc(-c2ccc(N3CCC(c4noc5ccc(F)cc45)CC3)nn2)c1 [compound 27, 5-fluoro-3-(1-(6-(4-methylthiophen-2-yl)pyridazin-3-yl)piperidin-4-yl)benzo[d]isoxazole]	75	114 nM and 122 nM	4 nM and 3 nM	55
Cc1nnc(-c2ccc(N3CCC(c4noc5ccc(F)cc45)CC3)nn2)o1 [compound 18, 5-fluoro-3-(1-(6-(5-methyl-1,3,4-oxadiazol-2-yl)pyridazin-3-yl)piperidin-4-yl)benzo[d]isoxazole]		315 nM	248 nM	
Cn1cc(-c2ccc(N3CCC(n4ncc5c(C(F)(F)F)cccc54)CC3)nn2)cn1 [compound 80, 1-(1-(6-(1-methyl-1H-pyrazol-4-yl)pyridazin-3-yl)piperidin-4-yl)-4-(trifluoromethyl)-1H-indazole]	74	52 nM	731 nM	
CCn1cc(-c2ccc(N3CCC(c4noc5ccc(F)cc45)CC3)nn2)cn1 [compound 13, 3-(1-(6-(1-ethyl-1H-pyrazol-4-yl)pyridazin-3-yl)piperidin-4-yl)-5-fiuorobenzo[d]isoxazole]	98	70 nM	985 nM	
Cn1cc(-c2ccc(N3CCC(n4ncc5cc(F)ccc54)CC3)nn2)cn1 [compound 73, 5-fluoro-1-(1-(6-(1-methyl-1H-pyrazol-4-yl)pyridazin-3-yl)piperidin-4-yl)-1H-indazole]	86	145 nM	262 nM	
Cn1cc(-c2ccc(N3CCC(n4ncc5ccccc54)CC3)nn2)cn1 [compound 40, 1-(1-(6-(1-methyl-1H-pyrazol-4-yl)pyridazin-3-yl)piperidin-4-yl)-1H-indazole]	92	92 nM	45 nM	
Cc1ccc(-c2ccc(N3CCC(N4CCc5ccc(F)cc54)CC3)nn2)s1 [Compound #52, 6-fluoro-1-(1-(6-(5-methylthiophen-2-yl)pyridazin-3-yl)piperidin-4-yl)indoline]	92	121 nM	6 nM	
OCCn1cc(-c2ccc(N3CCC(n4ncc5ccc(F)cc54)CC3)nn2)cn1 [compound 82, 2-(4-(6-(4-(6-fluoro-1H-indazo-1-yl)piperidin-1-yl)pyridazin-3-yl)-1H-pyrazol-1-yl)ethanol]	99	53 nM	96 nM	
Cc1ccc(-c2ccc(N3CCC(N4CCc5ccc(F)cc54)CC3)nn2)cc1 [Compound #36, 6-fluoro-1-(1-(6-(p-tolyl)pyridazin-3-yl)piperidin-4-yl)indoline]	92	79 nM	3 nM and 18 nM	
Cn1cc(-c2ccc(N3CCC(N4CCc5cc(F)ccc54)CC3)nn2)cn1 [Compound #46, 5-fluoro-1-(1-(6-(1-methyl-1H-pyrazol-4-yl)pyridazin-3-yl)piperidin-4-yl)indoline]	85	165 nM	99 nM	
OCc1cnn(-c2ccc(N3CCC(c4noc5ccc(F)cc45)CC3)nn2)c1 [compound 95, (1-(6-(4-(5-fluorobenzo[d]isoxazol-3-yl)piperidin-1-yl)pyridazin-3-yl)-1H-pyrazol-4-yl)methanol]	88	96 nM	62 nM	

Continued by falling IC50 (SCD1 [1]), values first:

inhibition at 1 µM (SCD1 [1]; 1 μM test compound) [%]	IC50 (SCD1 [1])	IC50 (SCD1 [2])	% Inh.@ 1 μM (SCD1 [1]; 1 μM test compound) [%]	Structure (SMILES)
97	31 nM	4 nM and 19 nM		Cc1cnc(-c2ccc(N3CCC(N4CCc5ccc(F)cc54)CC3)nn2)s1 [Compound #31, 2-(6-(4-(6-fluoroindolin-1-yl)piperidin-1-yl)pyridazin-3-yl)-5-methylthiazole]
97	22 nM	72 nM		CCCn1cc(-c2ccc(N3CCC(N4CCc5ccc(F)cc54)CC3)nn2)cn1 [Compound #79, 6-fluoro-1-(1-(6-(1-propyl-1H-pyrazol-4-yl)pyridazin-3-yl)piperidin-4-yl)indoline]
96	22 nM	8 nM		OCc1ccc(-c2ccc(N3CCC(N4CCc5ccc(F)cc54)CC3)nn2)cc1 [Compound #51]
90	20 nM	11 nM		OCCc1cnn(-c2ccc(N3CCC(N4CCc5ccc(F)cc54)CC3)nn2)c1 [Compound #43, 2-(1-(6-(4-(6-fluoroindolin-1-yl)piperidin-1-yl)pyridazin-3-yl)-1H-pyrazol-4-yl)ethanol]
102	15 nM	12 nM		CNC(=O)Cn1cc(-c2ccc(N3CCC(N4CCc5ccc(F)cc54)CC3)nn2)cn1 [Compound #64, 2-(4-(6-(4-(6-fluoroindolin-1-yl)piperidin-1-yl)pyridazin-3-yl)-1H-pyrazol-1-yl)-N-methylacetamide]
99	12 nM	41 nM		CCOCCn1cc(-c2ccc(N3CCC(N4CCc5ccc(F)cc54)CC3)nn2)cn1 [Compound #78, 1-(1-(6-(1-(2-ethoxyethyl)-1H-pyrazol-4-yl)pyridazin-3-yl)piperidin-4-yl)-6-fluoroindoline]
94	9 nM	9 nM and 16 nM		Cc1cnc(-c2ccc(N3CCC(c4noc5ccc(F)cc45)CC3)nn2)s1 [compound 28, 5-fluoro-3-(1-(6-(5-methylthiazol-2-yl)pyridazin-3-yl)piperidin-4-yl)benzo[d]isoxazole]
99	8 nM	2 nM		OCc1ccc(-c2ccc(N3CCC(c4noc5ccc(F)cc45)CC3)nn2)cn1 [compound 35, (5-(6-(4-(5-fluorobenzo[d]isoxazol-3-yl)piperidin-1-yl)pyridazin-3-yl)pyridin-2-yl)methanol]
97	7 nM	2 nM		Cc1csc(-c2ccc(N3CCC(N4CCc5ccc(F)cc54)CC3)nn2)n1 [Compound #29, 2-(6-(4-(6-fluoroindolin-1-yl)piperidin-1-yl)pyridazin-3-yl)-4-methylthiazole]

— US9102669B2, “Substituted piperidinyl-pyridazinyl derivatives useful as SCD 1 inhibitors” (Janssen Pharmaceutica NV, priority 2011, dated 2015)
